Experimental data from patent publication US5373090A, “Aprotinin analogues and a process for the production thereof” (Novo Nordisk A/S, priority 1988, dated 1994).

Legend:
[1] = target: T1, Human plasma kallikrein (Homo sapiens, UniProt P03952); assay: Inhibition of amidolytic activity of human plasma kallikrein (substrate S2302); assay type: biochemical
T1 construct: purchased Sigma (St. Louis, Mo.)
Procedure: (§1) The concentration was calculated using E280 nm=8.3 and Mr =6500. Human plasma kallikrein was obtained from Sigma (St. Louis, Mo.), bovine factor Xa was purified according to (H. Nobukazu et al. J.Biochem. 97 (1985)1347-1355), human factor IIa (thrombin) was a gift from Dr. W. Lawson (New York State Dept. of Health, Albany, N.Y.), recombinant human factor VIIa was from NOVO (Bagsvaerd, Denmark) and recombinant human protein Ca was from ZymoGenetics, Inc. (Seattle, Wash.). Substrate S 2302 (H-D-Pro-Phe-Arg-p-nitroanilide) substrate S2238 (H-D-Phe-Pip-Arg-p-nitroanilide) and substrate S2366 (Glu-Pro-Arg-p-nitroanilide) were from Kabi (Stockholm, Sweden). Substrate FXa-1 (methoxycarbonyl DCH-Gly-Arg-p-nitroanilide) was from NycoMed (Oslo, Norway). The experiments were performed in 100 mM NaCl, 50 mM Tris-HCl 0.01% Tween80, pH 7.4 at 25° C.
Substrate S 2302 (0.6 mM) was added to a final volume of 300 μand the rate of nitroaniline generation was measured at 405 nm by means of a Micro ELISA® Autoreader MR 580 from Dynatech Laboratories. The rate is proportional to the concentration of free enzyme.

[2] = target: T2, human factor IIa (thrombin) (Homo sapiens, UniProt P00734); assay: Inhibition of amidolytic activity of factor IIa (substrate S2238); assay type: biochemical; settings: 1.0 μM aprotinin analogue
T2 construct: human factor IIa (thrombin) was a gift from Dr. W. Lawson; gift from Dr. W. Lawson (New York State Dept. of Health, Albany, N.Y.)
Procedure: as §1
(§2) Substrate S 2302 (0.6 mM) was added to a final volume of 300 μand the rate of nitroaniline generation was measured at 405 nm by means of a Micro ELISA® Autoreader MR 580 from Dynatech Laboratories. […]
(§3) The analogues were also tested for inhibition of the amidolytic activity of the serine proteases: bovine factor Xa, human factor IIa, human recombinant factor VIIa and human recombinant protein Ca. […] Finally the analogues were analysed for an effect on the coagulation factors of human plasma by means of two clotting tests. […]

[3] = target: T3, recombinant human factor VIIa (Homo sapiens, UniProt P08709); assay: Inhibition of amidolytic activity of factor VIIa; assay type: biochemical; settings: 1.0 μM aprotinin analogue
T3 construct: recombinant human factor VIIa was from NOVO (Bagsvaerd, Denmark)
T3 sequence (P08709 213-466 limits assumed): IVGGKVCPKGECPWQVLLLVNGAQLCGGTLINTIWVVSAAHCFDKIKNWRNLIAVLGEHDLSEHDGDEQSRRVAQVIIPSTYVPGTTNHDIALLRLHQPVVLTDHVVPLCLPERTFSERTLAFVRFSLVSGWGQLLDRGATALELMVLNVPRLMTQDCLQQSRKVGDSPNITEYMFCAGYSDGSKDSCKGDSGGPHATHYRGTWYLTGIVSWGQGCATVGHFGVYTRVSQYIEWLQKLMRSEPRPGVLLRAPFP
T3 sequence (P08709 61-212 partner limits assumed): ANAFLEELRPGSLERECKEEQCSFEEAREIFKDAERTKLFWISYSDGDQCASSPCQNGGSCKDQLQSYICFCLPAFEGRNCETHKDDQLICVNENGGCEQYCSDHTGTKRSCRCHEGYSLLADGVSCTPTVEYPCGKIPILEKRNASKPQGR
Procedure: as §1, §2, §3

[4] = target: T4, bovine factor Xa (Bos taurus, UniProt P00743); assay: Inhibition of amidolytic activity of factor Xa (substrate FXa-1); assay type: biochemical; settings: 1.0 μM aprotinin analogue; substrate FXa1
T4 construct: bovine factor Xa was purified according to (H. Nobukazu et al. J.Biochem. 97 (1985)1347-1355); from tissue; bovine plasma inferred
T4 sequence (P00743 234-492 limits assumed): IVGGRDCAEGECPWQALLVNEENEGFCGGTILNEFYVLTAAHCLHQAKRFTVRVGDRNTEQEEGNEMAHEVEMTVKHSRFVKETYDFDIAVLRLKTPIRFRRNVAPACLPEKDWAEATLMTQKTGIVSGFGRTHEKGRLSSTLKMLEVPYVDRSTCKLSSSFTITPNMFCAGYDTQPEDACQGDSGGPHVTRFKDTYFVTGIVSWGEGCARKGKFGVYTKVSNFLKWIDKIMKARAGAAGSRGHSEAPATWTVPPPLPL
T4 sequence (P00743 41-180 partner limits assumed): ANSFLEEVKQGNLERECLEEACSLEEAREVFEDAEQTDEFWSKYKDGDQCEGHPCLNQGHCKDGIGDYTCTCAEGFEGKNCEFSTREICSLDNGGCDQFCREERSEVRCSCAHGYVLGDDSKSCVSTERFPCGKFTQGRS
Procedure: as §1, §2, §3

[5] = target: T5, recombinant human protein Ca (Homo sapiens, UniProt P04070); assay: Inhibition of amidolytic activity of protein Ca (substrate S2366); assay type: biochemical; settings: graphical Dixon method, read-out: Ki, amidolytic activity, Prot. Ca
T5 construct: purchased ZymoGenetics, Inc. (Seattle, Wash.)
T5 sequence (P04070 212-461 limits assumed): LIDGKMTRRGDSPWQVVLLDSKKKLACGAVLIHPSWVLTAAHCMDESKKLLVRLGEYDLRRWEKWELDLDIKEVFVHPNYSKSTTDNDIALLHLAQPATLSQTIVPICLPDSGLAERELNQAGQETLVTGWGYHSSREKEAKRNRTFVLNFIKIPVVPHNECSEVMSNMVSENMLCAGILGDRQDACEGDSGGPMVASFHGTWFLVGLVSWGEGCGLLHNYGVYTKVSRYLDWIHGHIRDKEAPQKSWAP
T5 sequence (P04070 43-197 partner limits assumed): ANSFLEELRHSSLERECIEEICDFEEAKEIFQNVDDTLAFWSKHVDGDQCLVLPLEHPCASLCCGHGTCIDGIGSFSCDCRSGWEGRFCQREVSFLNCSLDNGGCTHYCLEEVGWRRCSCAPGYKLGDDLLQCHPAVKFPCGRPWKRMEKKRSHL
Procedure: as §1, §2, §3

[6] = test system: coagulation factors of human plasma; assay: Clotting test, prothrombin time (PTT); assay type: biochemical; settings: 1.0 μM aprotinin analogue
Procedure: (§4) The analogues were also tested for inhibition of the amidolytic activity of the serine proteases: bovine factor Xa, human factor IIa, human recombinant factor VIIa and human recombinant protein Ca. The experiments were performed essentially as described for plasma kallikrein only appropriate substrates were used. Finally the analogues were analysed for an effect on the coagulation factors of human plasma by means of two clotting tests. These tests, the prothrombin time (PTT) and the activated thromboplastin time (APTT) were performed with General Diagnostics® reagents from Organon (Durham, N.C.) according to the directions given by the manufacturer.

[7] = test system: coagulation factors of human plasma; assay: Clotting test, activated thromboplastin time (APTT); assay type: biochemical; settings: 1.0 μM aprotinin analogue
Procedure: as §4

[8] = target: T6, granulocyte elastase (Homo sapiens, UniProt P08246); settings: known analogues, as claimed in prior art; cited from earlier work
T6 sequence (P08246 30-267): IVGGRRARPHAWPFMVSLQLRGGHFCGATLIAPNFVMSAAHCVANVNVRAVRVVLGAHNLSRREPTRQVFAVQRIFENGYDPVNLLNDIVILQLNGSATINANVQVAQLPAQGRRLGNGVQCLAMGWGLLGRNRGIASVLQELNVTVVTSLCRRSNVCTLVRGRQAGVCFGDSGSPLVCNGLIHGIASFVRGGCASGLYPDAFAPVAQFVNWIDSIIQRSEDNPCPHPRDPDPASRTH

[9] = test system: collagenase; settings: known analogues, as claimed in prior art; cited from earlier work
[10] = target: T7, trypsin (Bos taurus, UniProt P00760); settings: known analogues, as claimed in prior art; cited from earlier work
T7 construct: gene PRSS1
T7 sequence (P00760 24-246): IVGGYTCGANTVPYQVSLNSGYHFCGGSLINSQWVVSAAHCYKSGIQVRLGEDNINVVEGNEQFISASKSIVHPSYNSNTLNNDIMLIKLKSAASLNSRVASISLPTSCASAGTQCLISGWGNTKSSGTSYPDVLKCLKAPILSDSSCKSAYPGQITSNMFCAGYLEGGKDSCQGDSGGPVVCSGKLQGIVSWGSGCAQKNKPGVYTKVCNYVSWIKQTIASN

[11] = test system: kallikrein; settings: known analogues, as claimed in prior art; cited from earlier work

T1 sequence (P03952 391-638 limits assumed): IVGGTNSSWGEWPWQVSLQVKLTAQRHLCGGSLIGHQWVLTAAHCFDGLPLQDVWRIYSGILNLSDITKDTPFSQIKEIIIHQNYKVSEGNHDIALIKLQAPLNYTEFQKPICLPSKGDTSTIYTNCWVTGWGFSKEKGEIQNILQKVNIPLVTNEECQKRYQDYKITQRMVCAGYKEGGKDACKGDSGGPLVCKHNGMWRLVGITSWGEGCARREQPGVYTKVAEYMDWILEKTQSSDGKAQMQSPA
T1 sequence (P03952 20-390 partner limits assumed): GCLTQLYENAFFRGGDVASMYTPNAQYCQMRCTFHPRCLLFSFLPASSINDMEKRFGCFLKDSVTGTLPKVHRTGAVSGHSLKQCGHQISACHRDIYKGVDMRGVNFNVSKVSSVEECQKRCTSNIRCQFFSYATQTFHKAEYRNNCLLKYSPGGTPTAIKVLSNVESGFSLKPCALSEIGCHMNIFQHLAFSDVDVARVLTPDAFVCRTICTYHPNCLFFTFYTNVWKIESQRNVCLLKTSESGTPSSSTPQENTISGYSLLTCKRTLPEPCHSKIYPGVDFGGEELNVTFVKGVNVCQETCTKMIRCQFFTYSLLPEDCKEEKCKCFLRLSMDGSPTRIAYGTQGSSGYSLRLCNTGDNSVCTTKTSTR

In the case of “Aprotinin (bovine pancreatic trypsin inhibitor, BPTI) [Native Aprotinin]”, the Ki ([1]; graphical Dixon method, substrate S2302, pH 7.4, 25° C.) is reported as 180 nM, the “Inhibition of plasma kallikrein (in words, FIGS. 5A and 5B)” value ([1]; kallikrein 3 nM, aprotinin 0-20 nM, 30 minutes) is reported as “moderate inhibition” and the “Amidolytic activity of FIIa, inhibition” value [2] is reported as “-”. The “Amidolytic activity of FVIIa, inhibition” value [3] was “-”, the “Amidolytic activity of FXa, inhibition” value [4] was “-” and the Ki [5] was 400 nM. The “Clot assays PTT” value [6] was “-” and the “Clot assays APTT” value [7] was “-”.
In the case of aprotinin(15 Val), the “Effect on elastase (in words)” value [8] is listed as “relatively high selectivity for granulocyte elastase” and the “Inhibition effect on collagenase (in words)” value [9] is listed as “inhibition effect on collagenase”.
For aprotinin(15Ala), the “Effect on elastase (in words)” value [8] is listed as “only a weak inhibitory effect on elastase”.
For aprotinin(15Gly), the “Antitrypsin activity (in words)” value [10] is listed as “outstanding antitrypsin activity” and the “Inhibition of kallikrein (in words)” value [11] is listed as “surprisingly inhibits kallikrein”.
